From US20230357447A1, “TUMOR ACTIVATED MULTISPECIFIC ANTIBODIES FOR TARGETING CD28 AND PD-L1 AND METHODS OF USE THEREOF” (Janux Therapeutics, Inc., priority 2022, published 2023)

These substances were tested on anti-CD28 scFv (assay: Phage binding ELISA (panning) of clonal phage on anti-CD28 scFv, with or without CD28 soluble protein). Settings: Phage binding ELISA; captured anti-CD28 scFv pre-incubated with CD28 soluble protein.
Experimental: Clonal phage were harvested as crude supernatants and screened via standard enzyme linked immunosorbent assays (ELISAs). […] Prior to the addition of clonal phage, wells were incubated with blocking buffer and CD28 soluble protein or blocking buffer alone. Without washing or aspirating, clonal phage supernatants were then added to the wells and incubated for a short time. Wells were then washed followed by detection of bound phage using a horse radish peroxidase conjugated anti-M13 antibody. Clonal phage of interest were then sent for sequence analysis.

Row | Substance | CD28 scFv signal in presence of CD28
1 | Phage-98 (MDWCPKYLWDVCFN) | 0.422
2 | Phage-111 (MDWCPFYLWNECFY) | 0.594

Same assay, conditions: Phage binding ELISA; captured biotinylated anti-CD28 scFv, blocking buffer alone

Row | Substance | CD28 scFv signal
3 | Phage-98 (MDWCPKYLWDVCFN) | 2.566
4 | Phage-111 (MDWCPFYLWNECFY) | 2.528

Same assay, conditions: Phage binding ELISA; clonal phage supernatant, background wells

Row | Substance | Backgroud signal
5 | Phage-122 (MDWCPRDLWDQCYA) | 0.059
6 | Phage-156 (MDWCPKHLWHQCFH) | 0.058
7 | Phage-88 (MDWCPIHLWHYCFN) | 0.078
8 | Phage-120 (MDWCPRDLWHACFS) | 0.074
9 | Phage-127 (MDWCPRALWNECFA) | 0.080
10 | Phage-95 (MDWCPRFLWSECFN) | 0.062
11 | Phage-90 (MDWCPIDLWHLCFY) | 0.062
12 | Phage-158 (MDWCPRYLWTECFF) | 0.110
13 | Phage-98 (MDWCPKYLWDVCFN) | 0.096
14 | Phage-148 (MHWCPEYLWNECFA) | 0.074
15 | Phage-155 (MHWCPLHLWNECYH) | 0.063
16 | Phage-111 (MDWCPFYLWNECFY) | 0.099
17 | Phage-147 (MHWCPRDLWVVCFN) | 0.070
18 | Phage-124 (MDWCPRPLWDMCFF) | 0.063
19 | Phage-119 (MDWCPRYLWHMCYS) | 0.129

Same assay, conditions: clonal phage supernatant on captured anti-CD28 scFv pre-incubated with CD28 soluble protein

Row | Substance | Phage binding ELISA CD28 scFv signal in presence of CD28
20 | Phage-78 (MDWCPRHLWHECFN) | 0.704
21 | Phage-68 (MDWCPMYMWYECFA) | 0.358
22 | Phage-60 (MDWCPRTLWYLCFN) | 1.198
23 | Phage-43 (MDWCPRALWHECFY) | 0.252
24 | Phage-77 (MDWCPFYLWDECFN) | 0.291

Same assay, conditions: clonal phage supernatant on captured biotinylated anti-CD28 scFv; blocking buffer alone

Row | Substance | Phage binding ELISA CD28 scFv signal
25 | Phage-78 (MDWCPRHLWHECFN) | 2.654
26 | Phage-68 (MDWCPMYMWYECFA) | 2.479
27 | Phage-60 (MDWCPRTLWYLCFN) | 2.593
28 | Phage-43 (MDWCPRALWHECFY) | 2.499
29 | Phage-77 (MDWCPFYLWDECFN) | 2.672

Same assay, conditions: clonal phage supernatant; background (no anti-CD28 scFv signal)

Row | Substance | Phage binding ELISA Backgroud signal
30 | Phage-443 (MDWCPMTRWNDCYF) | 0.081
31 | Phage-452 (MDWCPRDWWHMCFN) | 0.100
32 | Phage-422 (MYWCPINMWDYCYA) | 0.122
33 | Phage-428 (MNWCPSTMWNRCLT) | 0.067
34 | Phage-413 (MDWCPSDMWSNCFN) | 0.070
35 | Phage-444 (VNQCTRYRWAECLN) | 0.465
36 | Phage-399 (MDWCPRSMWDSCFN) | 0.332
37 | Phage-408 (MFWCPKDMWAECFA) | 0.099
38 | Phage-383 (LAGCQRDLATVCVI) | 0.068
39 | Phage-434 (IVWCPTTQWNRCAT) | 0.113
40 | Phage-404 (MDWCPRDMWTSCFN) | 0.100

Same assay, conditions: clonal phage supernatant; background signal

Row | Substance | Phage binding ELISA Backgroud signal
41 | Phage-164 (MDWCPKFLWDLCFA) | 0.100
42 | Phage-220 (FDFCPTTMWTYCQH) | 0.084
43 | Phage-303 (MDWCPRYLWTECFS) | 0.074
44 | Phage-258 (MDWCPRSLWHVCFN) | 0.098
45 | Phage-377 (MDWCPFDLWLECFN) | 0.087
46 | Phage-54 (MNWCPRDMWYQCFN) | 0.068
47 | Phage-243 (MDWCPRHLWYECFN) | 0.063
48 | Phage-332 (IDWCPRALWDACLA) | 0.269
49 | Phage-70 (ITWCPSSMWNRCFI) | 0.065
50 | Phage-324 (MDWCPRHLWYECFS) | 0.216
51 | Phage-270 (MDWCPRDFWAFCFF) | 0.118
52 | Phage-331 (MDWCPRHLWDECFY) | 0.098
53 | Phage-186 (QDWCPTYLWHHCFN) | 0.101
54 | Phage-261 (MDWCPMFMWHECFN) | 0.102
55 | Phage-182 (MHWCPRSLWNECYF) | 0.168
56 | Phage-379 (MDWCPRNLWAECFS) | 0.061
57 | Phage-247 (MDWCPRFMWAECFN) | 0.073
58 | Phage-255 (MDWCPRHLWSVCFN) | 0.064
59 | Phage-71 (MDWCPRYLWHECFA) | 0.071
60 | Phage-200 (MFWCPFDMWHFCFN) | 0.150

Row | Substance | Phage binding ELISA Backgroud signal
61 | Phage-175 (MDWCPAYLWAECFS) | 0.082
62 | Phage-262 (MYWCATSMWNRCFV) | 0.248
63 | Phage-359 (MDWCPRPLWHECFA) | 0.063
64 | Phage-367 (MDWCPSFLWYECFN) | 0.063
65 | Phage-362 (MDWCPRILWHECFS) | 0.064
66 | Phage-300 (MDWCPRHLWFECFF) | 0.178
67 | Phage-188 (MDWCPSYLWDQCFF) | 0.100
68 | Phage-374 (MAWCPLDLWDKCFY) | 0.079
69 | Phage-45 (MDWCPRPLWHECFS) | 0.078
70 | Phage-305 (MDWCPRDLWTECFS) | 0.080
71 | Phage-260 (MDWCPVFMWNECFN) | 0.079
72 | Phage-212 (MDWCPRAMWDKCFF) | 0.073
73 | Phage-179 (MDWCPWILWNECFN) | 0.141
74 | Phage-78 (MDWCPRHLWHECFN) | 0.070
75 | Phage-325 (MDWCPAYLWDECFA) | 0.096
76 | Phage-68 (MDWCPMYMWYECFA) | 0.080
77 | Phage-252 (MDWCPRHMWINCFA) | 0.091
78 | Phage-60 (MDWCPRTLWYLCFN) | 0.508
79 | Phage-184 (MHWCPINLWNECFS) | 0.081
80 | Phage-319 (MSWCPRDLWHLCFF) | 0.077

Row | Substance | Phage binding ELISA Backgroud signal
81 | Phage-242 (MDWCPKHLWTECFA) | 0.098
82 | Phage-73 (MDWCPRALWHECFN) | 0.071
83 | Phage-43 (MDWCPRALWHECFY) | 0.115
84 | Phage-77 (MDWCPFYLWDECFN) | 0.092
85 | Phage-228 (ITWCHVISGLECWN) | 0.076
86 | Phage-338 (MDWCPRFLWNECFY) | 0.143
87 | Phage-334 (MDWCPRYLWDECFS) | 0.069
88 | Phage-354 (MDWCPRYLWLECFN) | 0.083
89 | Phage-345 (MDFCPRFLWHECFN) | 0.063
90 | Phage-226 (MDWCPRDRWIDCFN) | 0.218
91 | Phage-322 (MDWCPRHLWIECFN) | 0.339
92 | Phage-341 (MDWCPRHLWDECFN) | 0.084
93 | Phage-250 (MDWCPKVMWHYCFA) | 0.136
94 | Phage-282 (MDWCPRDLWFACFA) | 0.060
95 | Phage-42 (MDWCPRHLWVHCFN) | 0.071
96 | Phage-288 (MDWCPIALWDFCFA) | 0.073
97 | Phage-284 (MDWCPRFLWHVCFS) | 2.091
98 | Phage-244 (MDWCPRYLWHECFD) | 0.071
99 | Phage-61 (MVSCPTTMWNRCFN) | 0.079
